Where only a bound is given, the exact number is not on record here.

As usually defined, the IC50 is the midpoint of a concentration-inhibition curve.

Assay [1] addresses T1, human NLRP3 (Homo sapiens (Human), UniProt Q96P20). Description: Human Whole Blood (hWB) NLRP3 Assay (LPS/ATP, IL-1β). Type of assay: cell-based.
The target of assay [2] is T1, human NLRP3. The experiment in a line: Human PBMC NLRP3 Assay (LPS priming, ATP stimulation, cytokine measurement). It counts as cell-based.
For assay [3], the target named is T1, human NLRP3. Description: Scintillation Proximity (SPA) NLRP3 Assay: displacement of 3H-MCC950. Type of assay: binding. For orientation: SPA uses beads or plates that emit light when radiolabelled molecules are held near them.
Where [4] appears, read: human whole blood, LPS/ATP, IL-1β, read-out: hWB IC50.
Where [5] appears, read: human PBMC, LPS priming, ATP stimulation, read-out: PBMC IC50.
Setting [6] is: displacement of 3H-MCC950, read-out: SPA IC50.
Setting [7] is: hWB IC50, human whole blood, LPS/ATP, IL-1β.
The mark [8] stands for this setting: PBMC IC50, human PBMC, LPS priming, ATP stimulation.

T1 sequence (Q96P20 whole entry): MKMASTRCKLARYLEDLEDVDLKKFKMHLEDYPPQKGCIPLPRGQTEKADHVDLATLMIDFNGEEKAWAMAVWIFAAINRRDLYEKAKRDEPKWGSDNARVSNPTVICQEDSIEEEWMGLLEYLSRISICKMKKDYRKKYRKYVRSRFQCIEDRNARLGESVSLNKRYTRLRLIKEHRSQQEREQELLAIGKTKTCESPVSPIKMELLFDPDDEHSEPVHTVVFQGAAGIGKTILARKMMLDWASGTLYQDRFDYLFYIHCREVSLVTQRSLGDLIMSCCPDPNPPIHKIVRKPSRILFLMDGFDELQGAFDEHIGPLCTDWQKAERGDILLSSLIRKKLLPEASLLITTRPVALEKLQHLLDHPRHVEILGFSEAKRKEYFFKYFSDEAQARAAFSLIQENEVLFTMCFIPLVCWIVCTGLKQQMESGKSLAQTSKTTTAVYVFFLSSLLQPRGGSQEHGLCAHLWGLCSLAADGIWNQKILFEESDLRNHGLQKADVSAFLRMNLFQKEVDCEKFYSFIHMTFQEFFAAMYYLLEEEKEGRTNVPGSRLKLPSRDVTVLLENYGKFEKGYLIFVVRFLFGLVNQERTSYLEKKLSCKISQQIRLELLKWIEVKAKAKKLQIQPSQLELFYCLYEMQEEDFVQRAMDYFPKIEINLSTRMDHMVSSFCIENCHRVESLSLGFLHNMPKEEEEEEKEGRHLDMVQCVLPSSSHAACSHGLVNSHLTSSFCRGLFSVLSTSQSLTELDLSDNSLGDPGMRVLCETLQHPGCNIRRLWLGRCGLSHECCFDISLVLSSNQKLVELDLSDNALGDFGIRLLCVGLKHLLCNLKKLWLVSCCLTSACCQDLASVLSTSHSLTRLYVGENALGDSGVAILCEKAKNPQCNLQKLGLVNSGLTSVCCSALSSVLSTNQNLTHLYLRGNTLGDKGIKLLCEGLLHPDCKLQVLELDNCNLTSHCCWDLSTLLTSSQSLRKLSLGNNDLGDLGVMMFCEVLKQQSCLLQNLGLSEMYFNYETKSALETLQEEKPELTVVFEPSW

For the compound `O=C(N[C@@H]1CCCN(c2nnn[nH]2)C1)C1(c2ccc(Cl)cc2O)CC1` [Compound 15A, (R)-N-(1-(1H-tetrazol-5-yl)piperidin-3-yl)-1-(4-chloro-2-hydroxyphenyl)cyclopropane-1-carboxamide], the IC50 at human NLRP3 [1] (setting [4]) was less than 1000 nM; at human NLRP3 [1] (read-out: hWB IC50) it was 540 nM; on human NLRP3 [2] (setting [5]) it was 100 to 500 nM; on human NLRP3 [2] (read-out: PBMC IC50) it was 200 nM; at human NLRP3 [3] (setting [6]), 1000 to 10000 nM; on human NLRP3 [3] (read-out: SPA IC50), 1800 nM. The “fold increase in potency as measured by hWB IC50” value at human NLRP3 [1] (relative to Compound 10A) was more than 13 fold. For the same compound, at human NLRP3 [2] (relative to Compound 10A), the “fold increase in potency as measured by PBMC IC50” value is reported as more than 10 fold. Besides, the “fold increase in binding activity (SPA IC50)” value at human NLRP3 [3] (relative to Compound 10A) was more than 5 fold.
With `C[C@@H]1CCN(c2nnn[nH]2)C[C@H](NC(=O)C2(c3ccc(OC(F)(F)F)cc3O)CC2)C1` (single isomer, unassigned) [62A*], the IC50 at human NLRP3 [1] (setting [4]) is less than 1000 nM; on human NLRP3 [2] (setting [5]) it was less than 10 nM; on human NLRP3 [3] (setting [6]), less than 1000 nM.
For the compound `C[C@H]1C[C@@H](NC(=O)C2(c3ccc(OC(F)(F)F)cc3O)CC2)CN(c2nnn[nH]2)C1` [Compound 17A, 1-(2-hydroxy-4-(trifluoromethoxy)phenyl)-N-((3R,5S)-5-methyl-1-(1H-tetrazol-5-yl)piperidin-3-yl)cyclopropane-1-carboxamide], the IC50 at human NLRP3 [1] (setting [4]) is less than 1000 nM; on human NLRP3 [1] (read-out: hWB IC50) it was 230 nM; on human NLRP3 [2] (setting [5]) it was 10 to 100 nM; at human NLRP3 [2] (read-out: PBMC IC50), 17 nM; at human NLRP3 [3] (setting [6]), less than 1000 nM; at human NLRP3 [3] (read-out: SPA IC50), 98 nM.
Consider `O=C(N[C@@H]1CCC[C@@H]2CC[C@H]1N2c1nnn[nH]1)C1(c2ccc(C(F)(F)F)cc2O)CC1` [88A*, N-((1R,2R,6R)-9-(1H-tetrazol-5-yl)-9-azabicyclo[4.2.1]nonan-2-yl)-1-(2-hydroxy-4-(trifluoromethyl)phenyl)cyclopropane-1-carboxamide], for which the figures for the IC50 at human NLRP3 [1] (setting [7]), against human NLRP3 [2] (setting [8]) and on human NLRP3 [3] (setting [6]) were less than 1000 nM, less than 10 nM and less than 1000 nM, respectively.
On to `C[C@@H]1CCN(c2nnn[nH]2)C[C@H](NC(=O)C2(c3ccc(Cl)cc3O)CC2)C1` (single isomer, unassigned) [60A*], for which the results for the IC50 on human NLRP3 [1] (setting [4]), on human NLRP3 [2] (setting [5]) and at human NLRP3 [3] (setting [6]) were less than 1000 nM, less than 10 nM and less than 1000 nM, respectively.
In the case of `C[C@@H]1CCN(c2nnn[nH]2)C[C@H](NC(=O)C2(c3c(F)cc(Cl)cc3F)CC2)C1` (single isomer, unassigned) [72A*], the figures for the half-maximal inhibitory concentration (IC50) at human NLRP3 [1] (setting [4]), at human NLRP3 [2] (setting [5]) and at human NLRP3 [3] (setting [6]) were more than 3000 nM, less than 10 nM and less than 1000 nM, respectively.
The matching figures for `Cc1c(Cl)ccc(C2(C(=O)N[C@@H]3C[C@H](C)CCN(c4nnn[nH]4)C3)CC2)c1O` (single isomer, unassigned) [21A*, 1-(4-chloro-2-hydroxy-3-methylphenyl)-N-(5-methyl-1-(1H-tetrazol-5-yl)azepan-3-yl)cyclopropane-1-carboxamide]: less than 1000 nM, less than 10 nM and less than 1000 nM.
In the same order, the values of `C[C@@H]1CCN(c2nnn[nH]2)C[C@H](NC(=O)C2(c3ccc(Br)cc3)CC2)C1` (single isomer, unassigned) [59A*] are less than 1000 nM, less than 10 nM and less than 1000 nM.
In the same order, the values of `C[C@@H]1CCN(c2nnn[nH]2)C[C@H](NC(=O)C2(c3cc(F)c(Cl)cc3O)CC2)C1` (single isomer, unassigned) [29A*, 1-(4-chloro-5-fluoro-2-hydroxyphenyl)-N-(5-methyl-1-(1H-tetrazol-5-yl)azepan-3-yl)cyclopropane-1-carboxamide] are 1000 to 2000 nM, 10 to 100 nM and less than 1000 nM.
With `O=C(N[C@@H]1CCCCCN(c2nnn[nH]2)C1)C1(c2ccc(Cl)cc2)CC1` (single isomer, unassigned) [14A*, N-(1-(1H-tetrazol-5-yl)azocan-3-yl)-1-(4-chlorophenyl)cyclopropane-1-carboxamide], the IC50 at human NLRP3 [1] (setting [4]) is 1000 to 2000 nM; on human NLRP3 [2] (setting [5]), 10 to 100 nM; at human NLRP3 [3] (setting [6]) it was less than 1000 nM.
As for `C[C@H]1C[C@@H](NC(=O)C2(c3ccc(OC(F)F)cc3)CC2)[C@H]2CC[C@@H]1N2c1nnn[nH]1` (single isomer, unassigned) [35E*], the IC50 on human NLRP3 [1] (setting [4]) is more than 3000 nM; on human NLRP3 [3] (setting [6]) it was 1000 to 10000 nM.
On to `C[C@@H]1CCN(c2nnn[nH]2)C[C@H](NC(=O)C2(c3ccc(C(F)(F)F)c(F)c3)CC2)C1` (single isomer, unassigned) [66A*], for which the values for the IC50 at human NLRP3 [1] (setting [4]), on human NLRP3 [2] (setting [5]) and at human NLRP3 [3] (setting [6]) were less than 1000 nM, less than 10 nM and less than 1000 nM, respectively.
With `CC(C)c1ccc(C2(C(=O)N[C@@H]3C[C@H](C)CCN(c4nnn[nH]4)C3)CC2)c(O)c1` (single isomer, unassigned) [27A*, 1-(2-hydroxy-4-isopropylphenyl)-N-(5-methyl-1-(1H-tetrazol-5-yl)azepan-3-yl)cyclopropane-1-carboxamide], the IC50 on human NLRP3 [1] (setting [4]) was less than 1000 nM; on human NLRP3 [2] (setting [5]) it was less than 10 nM; on human NLRP3 [3] (setting [6]), less than 1000 nM.
Regarding `C[C@H]1C[C@@H]2CC[C@H]([C@H](NC(=O)C3(c4ccc(C(F)(F)F)cc4)CC3)C1)N2c1nnn[nH]1` [104A*, N-((1R,2R,4R,6S)-4-methyl-9-(1H-tetrazol-5-yl)-9-azabicyclo[4.2.1]nonan-2-yl)-1-(4-(trifluoromethyl)phenyl)cyclopropane-1-carboxamide], the IC50 against human NLRP3 [1] (setting [7]) was 2000 to 3000 nM; at human NLRP3 [3] (setting [6]), less than 1000 nM.
For the compound `C[C@H]1C[C@@H](NC(=O)C2(c3ccc(C4CC4)cc3O)CC2)CN(c2nnn[nH]2)C1` [Compound 23A, 1-(4-cyclopropyl-2-hydroxyphenyl)-N-((3R,5S)-5-methyl-1-(1H-tetrazol-5-yl)piperidin-3-yl)cyclopropane-1-carboxamide], the IC50 on human NLRP3 [1] (setting [4]) is less than 1000 nM; on human NLRP3 [2] (setting [5]), 10 to 100 nM; at human NLRP3 [3] (setting [6]), less than 1000 nM.
With `C[C@@H]1CCN(c2nnn[nH]2)C[C@H](NC(=O)C2(c3ccc(Cl)c(F)c3O)CC2)C1` (single isomer, unassigned) [18A*, 1-(4-chloro-3-fluoro-2-hydroxyphenyl)-N-(5-methyl-1-(1H-tetrazol-5-yl)azepan-3-yl)cyclopropane-1-carboxamide], the IC50 was less than 1000 nM on human NLRP3 [1] (setting [4]), less than 10 nM on human NLRP3 [2] (setting [5]) and less than 1000 nM on human NLRP3 [3] (setting [6]).
Take `C[C@@H]1C[C@@H](NC(=O)C2(c3ccc(C(F)(F)F)cc3F)CC2)[C@H]2CC[C@@H]1N2c1nnn[nH]1` [84A*, 1-(2-fluoro-4-(trifluoromethyl)phenyl)-N-((1R,2R,4R,5S)-4-methyl-8-(1H-tetrazol-5-yl)-8-azabicyclo[3.2.1]octan-2-yl)cyclopropane-1-carboxamide]: the IC50 on human NLRP3 [1] (setting [7]) was less than 1000 nM; on human NLRP3 [2] (setting [8]), less than 10 nM; at human NLRP3 [3] (setting [6]), less than 1000 nM.
As for `C[C@H]1CC[C@@H](NC(=O)C2(c3ccc(C(F)(F)F)cc3O)CC2)CN(c2nnn[nH]2)C1` [89A*, 1-(2-hydroxy-4-(trifluoromethyl)phenyl)-N-((3R,6S)-6-methyl-1-(1H-tetrazol-5-yl)azepan-3-yl)cyclopropane-1-carboxamide], the results for the IC50 at human NLRP3 [1] (setting [4]), at human NLRP3 [2] (setting [5]) and at human NLRP3 [3] (setting [6]) were 2000 to 3000 nM, less than 10 nM and less than 1000 nM, respectively.
`C[C@@H]1C[C@@H](NC(=O)C2(c3ccc(C4CC4(F)F)cc3)CC2)[C@H]2CC[C@@H]1N2c1nnn[nH]1` (single isomer, unassigned) [37A*]: the results for the IC50 against human NLRP3 [1] (setting [7]) and on human NLRP3 [3] (setting [6]) were 1000 to 2000 nM and less than 1000 nM, respectively.
On to `Cc1ccc(C2(C(=O)N[C@@H]3C[C@H](C)CCN(c4nnn[nH]4)C3)CC2)c(O)c1F` (single isomer, unassigned) [22A*, 1-(3-fluoro-2-hydroxy-4-methylphenyl)-N-(5-methyl-1-(1H-tetrazol-5-yl)azepan-3-yl)cyclopropane-1-carboxamide], for which the IC50 on human NLRP3 [1] (setting [4]) is less than 1000 nM; at human NLRP3 [2] (setting [5]), less than 10 nM.
In the case of `C[C@@H]1CC(NC(=O)C2(c3ccc(OC(F)F)cc3O)CC2)[C@H]2CC[C@@H]1N2c1nnn[nH]1` (single isomer, unassigned) [43A*], the IC50 on human NLRP3 [1] (setting [7]) and at human NLRP3 [3] (setting [6]) was less than 1000 nM in each case.
As to `O=C(N[C@@H]1CCCCN(c2nnn[nH]2)C1)C1(c2ccc(Cl)cc2O)CC1` [Compound 52A, (R)-N-(1-(1H-tetrazol-5-yl)azepan-3-yl)-1-(4-chloro-2-hydroxyphenyl)cyclopropane-1-carboxamide], the IC50 was less than 1000 nM at human NLRP3 [1] (setting [4]), 260 nM at human NLRP3 [1] (read-out: hWB IC50), less than 1000 nM on human NLRP3 [3] (setting [6]) and 79 nM at human NLRP3 [3] (read-out: SPA IC50).
Take `O=C(N[C@@H]1C[C@@H](C(F)(F)F)[C@@H]2CC[C@H]1N2c1nnn[nH]1)C1(c2ccc(Cl)cc2)CC1` (single isomer, unassigned) [103A*]: the IC50 at human NLRP3 [1] (setting [7]) was less than 1000 nM; on human NLRP3 [3] (SPA IC50, displacement of 3H-MCC950) it was less than 1000 nM.
With `C[C@H]1C[C@@H](NC(=O)C2(c3ccc(C(F)F)cc3O)CC2)CN(c2nnn[nH]2)C1` [Compound 48A, 1-(4-(difluoromethyl)-2-hydroxyphenyl)-N-((3R,5S)-5-methyl-1-(1H-tetrazol-5-yl)piperidin-3-yl)cyclopropane-1-carboxamide], the IC50 at human NLRP3 [1] (setting [4]) and on human NLRP3 [3] (setting [6]) was less than 1000 nM in each case.
`COc1cc(F)c(C2(C(=O)N[C@@H]3C[C@@H](C)[C@@H]4CC[C@H]3N4c3nnn[nH]3)CC2)c(F)c1` (single isomer, unassigned) [102A*]: the IC50 on human NLRP3 [1] (setting [7]) and on human NLRP3 [3] (setting [6]) was less than 1000 nM each time.
`O=C(N[C@@H]1CCN(c2nnn[nH]2)C1)C1(c2ccc(Cl)cc2)CC1` (single isomer, unassigned) [Comparative Example A*, reference compound]: the IC50 was more than 50000 nM on human NLRP3 [1] (read-out: hWB IC50) and 420000 nM at human NLRP3 [3] (read-out: SPA IC50).
In the same order, the values of `O=C(Nc1cccc(-c2ccccc2)c1)C1(c2ccc(Cl)cc2)CC1` [Comparative Example D, N-([1,1′-biphenyl]-3-yl)-1-(4-chlorophenyl)cyclopropane-1-carboxamide, reference compound] are more than 50000 nM and 320000 nM.
